Laboratory results from patent publication US20240269128A1, “COMPOUNDS FOR TREATING OR PREVENTING ALZHEIMER'S DISEASE” (THE UNITED STATES OF AMERICA, as represented by the …, priority 2021, published 2024).

Experiments:
H4-hAPP cells = test: Aβ secretion assay; format: cell-based, human
Protocol: (§1) Aβ Secretion: H4-hAPP cells were cultivated in Opti-MEM supplemented with 10% FCS, 1% penicillin/streptomycin 200 μg/mL Hygromycin B and 2.5 μg/mL Blasticidin S. H4-hAPP cells were seeded into 96 well plates (2×10^4 cells per well). On the next day, cells in 96 well plates were treated with compounds, R.I. (DAPT 400 nM) or vehicle. 24 h later, supernatants were collected for further Aβ measurements by MSD® (V-PLEX Aβ Peptide Panel 1 (6E10) Kit, K15200E, Mesoscale Discovery).
as §1, with “secretion: Human APP overexpressing” for “Secretion:”, “HCQ (0.25 μM, 2.5 μM and 25 μM) or the reference item” for “with compounds, R.I.”, “nM), a γ-secretase inhibitor” for “nM) or”
(§2) Cultivation and treatment of H4-hAPP cells: H4-hAPP cells were thawed and cultivated in Opti-MEM supplemented with 10% FCS, 1% penicillin/streptomycin 200 μg/ml Hygromycin B and 2.5 μg/ml Blasticidin S (=culture medium). H4-hAPP cells were seeded into 96 well plates (2×10^4 cells per well). On the next day, cells in 96 well plates were treated with TUDCA (100 μM (C1), 10 μM (C2), or 1.0 μM (C3)), R.I. (DAPT 400 nM) or vehicle. Alternatively, cells in 96 well plates were treated with 25 μM HCQ/0.1 μM TUDCA (C1), 2.5 μM HCQ/100 μM TUDCA (C2), and 2.5 μM HCQ/10 μM TUDCA (C3). 24 h later, supernatants were collected for further Aβ measurements by MSD. The experiment was performed in n=6 technical replicates for all groups.
(§3) Aβ38, 40, 42 measurement: Supernatants were diluted 1:10 and analyzed for human Aβ38, 40, and 42 with MSD® 96-well MULTI-SPOT® 6E10 Abeta Triplex Assay (Mesoscale Discovery, Rockville, MD). The immune assay was carried out according to the manual and plates are read on the MESO QuickPlex SQ 120 multiplexing instrument. Analyte levels were evaluated according to adequate Aβ peptide standards (MSD) as pg per mL.
Aβ Secretion: H4-hAPP cells were cultivated in Opti-MEM supplemented with 10% FCS, 1% penicillin/streptomycin, hygromycin B (200 μg/ml), and blasticidin S (2.5 μg/ml). H4-hAPP cells were seeded into 96-well plates (2×10^4 cells per well). On the next day, cells in 96-well plates were treated with compounds, reference item [400 nM N-[N-(3,5-difluorophenacetyl-1-alanyl)]-S-phenylglycine t-butyl ester (DAPT)], or vehicle. Twenty-four hours later, supernatants were collected for further Aβ measurements by MSD [V-PLEX Aβ Peptide Panel 1 (6E10) Kit, K15200E, Mesoscale Discovery].
as §2, with “Culture” for “Cultivation”, “T.I.,” for “TUDCA (100 μM (C1), 10 μM (C2), or 1.0 μM (C3)),”, “vehicle.” for “vehicle. Alternatively, cells in 96 well plates were treated with 25 μM HCQ/0.1 μM TUDCA (C1), 2.5 μM HCQ/100 μM TUDCA (C2), and 2.5 μM HCQ/10 μM TUDCA (C3).”
as §3, with “measurement in H4-hAPP cells:” for “measurement:”, “Discovery).” for “Discovery, Rockville, MD).”, “were” for “are”, “120.” for “120 multiplexing instrument.”

STAT3 [1] = target: T1, STAT3 (Mus musculus, UniProt P42227); test: Western blot of p-STAT3 in BV-2 phenotypic assays (Aβ1-42 clearance, LPS); format: cell-based; conditions: 25 μM
Protocol: Western blot analyses: Samples for western blot analyses were prepared from 3 assays which provided evidence of HCQ-associated rescue (i.e., Ab1-42 clearance, tau phosphorylation, and LPS-induced neuroinflammation). Samples were prepared identically as described above in section: Effect of HCQ on AD-related phenotypes in cell culture, and scaled up to 24-well format to allow for adequate sample volume. After HCQ treatment, cells were washed once with PBS and harvested in 50 μl 50 mM HEPES+2% SDS lysis buffer. The extracts were then boiled at 95° C. for 5 mins. Analytic methods were identical to those described above in Example 4.
Statistical analyses: Statistical analysis was performed using STATA 16.1. Group differences were evaluated using two-sample t-tests (parametric) to calculate differences in p-STAT3 levels between HCQ treated and control samples. We additionally used the Wilcoxon rank-sum test (non-parametric) to confirm that results were robust to distributional assumptions. Significant differences were indicated as p<0.05.

STAT3 [2] = target: T1, STAT3; test: Western blot of hippocampal STAT3 and p-STAT3 after STET; design: hippocampal homogenate samples across four groups; from tissue; host or cells: acute hippocampal slices from WT and APP/PS1 (APPSwe/PS1dE9) mice
Protocol: To test if the rescue of impaired late-LTP by HCQ may be through inactivation of STAT3, levels of total STAT3 and phosphorylated STAT3 (p-STAT3; Tyr705) were examined to determine whether they were reduced by HCQ treatment. Specifically, differences in STAT3 and pSTAT3 levels were tested in hippocampal homogenate samples across four groups: WT, APP/PS1, WT+50 μM HCQ, and APP/PS1+50 μM HCQ mice (5-months old). All hippocampal slices were incubated in the interphase chamber and HCQ was applied 30 minutes before and after STET. In each group, hippocampal slices were collected one hour after STET.

[3] = macaques; cited from earlier work

T1 sequence (P42227 whole entry): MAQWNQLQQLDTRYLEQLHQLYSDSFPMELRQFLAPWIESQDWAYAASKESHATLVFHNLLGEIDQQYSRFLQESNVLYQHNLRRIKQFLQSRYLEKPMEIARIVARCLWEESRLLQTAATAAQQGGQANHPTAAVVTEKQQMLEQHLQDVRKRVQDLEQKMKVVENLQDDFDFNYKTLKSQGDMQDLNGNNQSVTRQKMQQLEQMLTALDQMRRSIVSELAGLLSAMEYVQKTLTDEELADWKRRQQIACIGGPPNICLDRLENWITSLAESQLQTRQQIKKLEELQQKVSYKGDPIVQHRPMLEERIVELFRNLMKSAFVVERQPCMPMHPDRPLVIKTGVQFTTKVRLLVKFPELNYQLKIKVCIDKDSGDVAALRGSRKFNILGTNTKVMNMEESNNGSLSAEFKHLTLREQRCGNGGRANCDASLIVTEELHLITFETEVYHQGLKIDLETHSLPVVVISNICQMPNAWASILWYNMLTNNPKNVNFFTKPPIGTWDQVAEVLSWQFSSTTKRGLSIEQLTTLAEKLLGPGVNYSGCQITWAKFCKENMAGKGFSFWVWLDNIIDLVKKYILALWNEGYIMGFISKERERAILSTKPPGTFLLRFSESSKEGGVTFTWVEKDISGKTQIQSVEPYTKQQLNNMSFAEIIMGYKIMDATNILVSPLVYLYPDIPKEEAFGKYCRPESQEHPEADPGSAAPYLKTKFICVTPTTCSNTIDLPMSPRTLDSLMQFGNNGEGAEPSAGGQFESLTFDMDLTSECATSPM

| SMILES | secreted Aβ1-42 (H4-hAPP cells; HCQ 0.25 μM, 2.5 μM and 25 μM) | p-STAT3 (Tyr705) (STAT3 [1]; Aβ1-42 clearance assay, relative to VC) | p-STAT3 (Tyr705) (STAT3 [1]; LPS-induced neuroinflammation assay, vs VC) | hippocampal p-STAT3 (Tyr705) (STAT3 [2]; APP/PS1+50 μM HCQ vs untreated APP/PS1) | hippocampal total STAT3 (STAT3 [2]; APP/PS1 vs APP/PS1+50 μM HCQ) | hippocampal total STAT3 and p-STAT3 (Tyr705) (STAT3 [2]; WT vs WT+50 μM HCQ) | Kp brain/plasma [3] | secretion of Aβ1-38 (H4-hAPP cells; TUDCA 100, 10, 1.0 μM, 24 h) | secretion of Aβ1-40 (H4-hAPP cells; TUDCA 100, 10, 1.0 μM, 24 h) | secretion of Aβ1-42 (H4-hAPP cells; TUDCA 100, 10, 1.0 μM, 24 h) | effect in Aβ release (H4 cells) (H4-hAPP cells; posterior probability of a protective effect) |
| --- | --- | --- | --- | --- | --- | --- | --- | --- | --- | --- | --- |
| CCN(CCO)CCCC(C)Nc1ccnc2cc(Cl)ccc12 (centres unmarked) [HCQ, hydroxychloroquine] | did not alter | lowered | significantly lower | significantly lower | no significant difference | similar | 21.99±0.11 | – | – | – | – |
| C[C@H](CCC(=O)NCCS(=O)(=O)O)[C@H]1CC[C@H]2[C@@H]3[C@@H](O)C[C@@H]4C[C@H](O)CC[C@]4(C)[C@H]3CC[C@]12C [TUDCA, tauroursodeoxycholic acid] | – | – | – | – | – | – | – | lowers | lowers | lowers | protective |
